{"source": "paper PMC4756352", "about": "“Atypical natural killer T-cell receptor recognition of CD1d–lipid antigens” (Nature Communications, 2016)", "key": {"[1]": {"target": "T1, human CD1d (Homo sapiens, UniProt P15813)", "T1 construct": "soluble CD1d with C-terminal BirA biotin ligase tag and B2M, baculovirus/High Five insect cells, IMAC and gel filtration; biotinylated; with Beta-2-microglobulin", "T1 sequence (P15813 20-295 limits assumed)": "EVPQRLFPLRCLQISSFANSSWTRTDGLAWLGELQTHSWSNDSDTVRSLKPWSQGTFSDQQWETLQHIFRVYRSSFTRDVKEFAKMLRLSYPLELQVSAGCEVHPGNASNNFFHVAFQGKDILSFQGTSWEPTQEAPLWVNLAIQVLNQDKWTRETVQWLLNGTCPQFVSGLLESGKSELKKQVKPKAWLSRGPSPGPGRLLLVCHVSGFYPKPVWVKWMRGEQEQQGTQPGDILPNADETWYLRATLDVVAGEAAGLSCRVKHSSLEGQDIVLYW", "T1 sequence (P61769 21-119 partner)": "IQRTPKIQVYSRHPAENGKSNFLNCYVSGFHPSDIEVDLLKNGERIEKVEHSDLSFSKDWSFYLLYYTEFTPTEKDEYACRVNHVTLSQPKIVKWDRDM", "assay": "SPR, lipid-loaded CD1d immobilised, TCR injected", "conditions": "lipid loaded at 3-6 fold molar excess overnight; binding seen through TCR recognition; HBS-T pH 7.4, 25 °C"}, "[2]": {"target": "T1, human CD1d", "assay": "lipid-loaded CD1d tetramer staining of TCR-transduced Jurkat cells", "type": "cell-based", "conditions": "binding seen through TCR recognition (9B1, 9B2 lines)"}}}
{"smiles": "CCCCCCCCCCCCCCCCCCCCCCCCCC(=O)N[C@@H](CO[C@H]1O[C@H](CO)[C@H](O)C[C@H]1O)[C@H](O)CCCCCCCCCCCCCCC", "note": "[3′-deoxy-α-GalCer]", "values": [{"measurement": "SPR, lipid-loaded CD1d immobilised, TCR injected", "setting": "[1]", "value": "affinity of the 9C1 and 9B2 TCRs towards CD1d-3′-deoxy-α-GalCer"}]}
{"smiles": "CCCCCCCCCCCCC/C=C/[C@@H](O)[C@H](CO[C@@H]1O[C@H](CO)[C@H](O)[C@H](O)[C@H]1O)NC(=O)CCCCCCCCCCC", "note": "[β-GalCer (C12)]", "values": [{"measurement": "lipid-loaded CD1d tetramer staining of TCR-transduced Jurkat cells", "setting": "[2]", "value": "These 9B1 and 9B2 TCRs also reacted to a lesser extent with β-GalCer"}]}
{"smiles": "CCCCCCCC/C=C\\CCCCCCCCCCCCCC(=O)N[C@@H](CO[C@@H]1O[C@H](CO)[C@@H](O)[C@H](O)[C@H]1O)[C@H](O)/C=C/CCCCCCCCCCCCC", "note": "[β-GlcCer (C24:1)]", "values": [{"measurement": "lipid-loaded CD1d tetramer staining of TCR-transduced Jurkat cells", "setting": "[2]", "value": "we detected clear reactivity of Jurkat.9B1 and Jurkat.9B2 cell lines to β-GlcCer"}]}
{"smiles": "CCCCCCCCCCCCCCCCCCCCCCCCCC(=O)N[C@@H](CO[C@H]1O[C@H](CO)[C@@H](O)[C@H](O)[C@H]1O)[C@H](O)[C@H](O)CCCCCCCCCCCCCC", "note": "[α-GlcCer (C26:0)]", "values": [{"measurement": "SPR, lipid-loaded CD1d immobilised, TCR injected", "setting": "[1]", "value": "yet was well-tolerated by NKT15 TCR"}]}
{"smiles": "CCCCCCCCCCCCCCCCCCCCCCCCCC(=O)N[C@@H](CO[C@H]1O[C@H](CO)C[C@H](O)[C@H]1O)[C@H](O)CCCCCCCCCCCCCCC", "values": [{"measurement": "SPR, lipid-loaded CD1d immobilised, TCR injected", "setting": "[1]", "value": "no negative impact of this analogue on NKT15 or 9B2 TCR binding"}]}
